Measured values: patent US4912199A, “Oligopeptide anticancer and antiviral agents” (The Governors of the University of Alberta, priority 1987, dated 1990)
Converted amounts (≈) assume the structure as drawn. Where two headings read alike, the source gives them in different places.

Experiments:
Vaccinia = type: cell-based, vaccinia virus; conditions: for minimum inhibitory concentration against vaccinia virus: text of Examples 3(A) and 3(B), hydrochloride
Herpes simplex-1 = test: Antiviral test, minimum inhibitory concentration in primary rabbit kidney cell cultures; type: cell-based; conditions: 50% kill of the viruses in primary rabbit kidney cell cultures
Herpes-2 = test: as above; type: cell-based; conditions: 50% kill of the viruses in primary rabbit kidney cell cultures
[1] = test system: primary rabbit kidney cell cultures; test: Minimal cytotoxic concentration in the antiviral test
Experimental: The antiviral properties of the compounds listed in Table 1 were tested to determine the minimum inhibitory concentration to achieve a 50% kill of the viruses in primary rabbit kidney cell cultures.

L1210 murine Leukemia = test: Anticancer properties, 50% cell kill (ID50); type: cell-based
[2] = test system: FM3A murine mammary tumor; test: Anticancer properties, 50% cell kill (ID50); type: cell-based
RAJI human B lymphoblast = test: Anticancer properties, 50% cell kill (ID50); type: cell-based
Excerpt: RAJI human B lymphoblast
FIG. 1 relates to such acitivity for the cell line MOLT/4F, human T lymphoblast. FIG. 2 related to the tumor cell lines of Raji, human B lymphoblast; all values being expressed in ID50 values in arbitrary units. […] The general formula for the compounds of this invention as tested in FIGS. 1 and 2 are of formula I, wherein A is represented by: [drawing 14] m is 1; n is 1 and Het is pyrrole, R is represented by the formula COk --(CH2)l --CO where l is equal to 0, 1, 2, 3, 4, 5, 6, 7 or 8 and k is equal to 0 or 1.

P388 murine leukemia = test: Antileukemic properties, ID50 vs P388 leukemia; type: cell-based; conditions: 25,000 cells per well; 72 hours incubation at 37° C.
Experimental: The compounds of the following Table 3 were prepared in accordance with processes of this invention.

[3] = test system: MOLT/4F human T lymphoblast; test: Anticancer properties, 50% cell kill (ID50); type: cell-based
[4] = 50% kill of the viruses in primary rabbit kidney cell cultures

SMILES | Minimum Inhibitory Conc. Herpes simplex-1 (Herpes simplex-1) [µg/mL] | Minimum Inhibitory Conc. Herpes-2 (Herpes-2) [µg/mL] | Minimum Inhibitory Conc. L1210 (ID50) (L1210 murine Leukemia) [µg/mL] | Minimum Inhibitory Conc. FM3A (ID50) [2] [µg/mL] | Minimum Inhibitory Conc. RAJI (ID50) (RAJI human B lymphoblast) [µg/mL] | ID50 vs P388 leukemia (P388 murine leukemia) [µg/mL] | Minimum Inhibitory Conc. Vaccinia (Vaccinia; [4]) [µg/mL] | Minimal Cytotoxic Conc. [1] [μg/m] | further results
Cl.Cn1cc(NC(=O)c2cc(NC(=O)C[N+](C)(C)C)cn2C)cc1C(=O)NCCC(=N)N.[Cl-] [3(B), 1-Methyl-4-(1-methyl-4-trimethylammonium-acetamidopyrrole-2-carboxamido)pyrrole-2-carboxamidopropionamidine chloride hydrochloride] | – | – | – | – | – | – | – | – | minimum inhibitory concentration against vaccinia virus (Vaccinia): 300 µg/mL
Cn1cc(NC(=O)c2cc(NC(=O)c3cc(NC=O)cn3C)cn2C)cc1C(=O)NCCC(=N)N [Distamycin, distamycin, reference compound] | 70 | 70 | 27.1 ± 4.7 | 30.6 ± 2.4 | 23.7 ± 3.69 | 20 (≈ 41.5 µM) | – | – | Minimum Inhibitory Conc. Vaccinia (Vaccinia): 0.2 µg/mL; Minimal Cytotoxic Conc. ([1]; primary rabbit kidney cell cultures): 200 μg/m
Cl.Cn1cc(NC(=O)c2cc(NC(=O)C[N+](C)(C)C)cn2C)cc1C(=O)NCCC(=N)N.[Cl-] [Example 3(A), 1-Methyl-4-(1-methyl-4-trimethylammonium-acetamidopyrrole-2-carboxamido)pyrrole-2-carboxamidopropionamidine chloride hydrochloride] | – | – | – | – | – | – | – | – | minimum inhibitory concentration against vaccinia virus (Vaccinia): 20 µg/mL
Cl.Cl.Cn1cc(NC(=O)c2cc(NC(=O)CCCCCCC(=O)Nc3cc(C(=O)Nc4cc(C(=O)NCCC(=N)N)n(C)c4)n(C)c3)cn2C)cc1C(=O)NCCC(=N)N [m=1 n=1 R = CO(CH2)6 CO] | 10 | 10 | – | – | – | 0.70 | 0.2 | ≥ 10 | –
Cl.Cl.Cn1cc(NC(=O)c2cc(NC(=O)CCCCCCCC(=O)Nc3cc(C(=O)Nc4cc(C(=O)NCCC(=N)N)n(C)c4)n(C)c3)cn2C)cc1C(=O)NCCC(=N)N [m=1 n=1 R = CO(CH2)7 CO] | 40 | 40 | – | – | – | 0.75 | 0.2 | ≥ 100 | –
Cl.Cl.Cn1cc(NC(=O)c2cc(NC(=O)CC(=O)Nc3cc(C(=O)Nc4cc(C(=O)NCCC(=N)N)n(C)c4)n(C)c3)cn2C)cc1C(=O)NCCC(=N)N [m=1 n=1 R = COCH2CO] | – | – | 28.5 ± 9.7 | 5.87 ± 2.23 | 3.39 ± 0.69 | 0.91 | – | – | Minimum Inhibitory Conc. MOLT/4F (ID50) [3]: 2.85 ± 0.6 µg/mL
Cl.Cl.Cn1cc(NC(=O)c2cc(NC(=O)/C=C/C(=O)Nc3cc(C(=O)Nc4cc(C(=O)NCCC(=N)N)n(C)c4)n(C)c3)cn2C)cc1C(=O)NCCC(=N)N [m=1 n=1 R = COCH CHCO (trans)] | – | 10 | – | – | – | – | 2 | ≥ 40 | –
Cl.Cl.Cn1cc(NC(=O)c2cc(NC(=O)CCCCCCCCC(=O)Nc3cc(C(=O)Nc4cc(C(=O)NCCC(=N)N)n(C)c4)n(C)c3)cn2C)cc1C(=O)NCCC(=N)N [m=1 n=1 R = CO[CH2]8CO] | – | – | 4.21 ± 1.52 | 22.1 ± 11.1 | 3.34 ± 0.44 | 0.98 | – | – | Minimum Inhibitory Conc. MOLT/4F (ID50) [3]: 2.97 ± 0.4 µg/mL
Cl.Cl.Cn1cc(NC(=O)c2cc(NC(=O)Nc3cc(C(=O)Nc4cc(C(=O)NCCC(=N)N)n(C)c4)n(C)c3)cn2C)cc1C(=O)NCCC(=N)N [m=1 n=1 l=0 k=0] | – | – | – | – | – | 8.0 | – | – | –
Cl.Cl.Cn1cc(NC(=O)c2cc(NC(=O)CCCC(=O)Nc3cc(C(=O)Nc4cc(C(=O)NCCC(=N)N)n(C)c4)n(C)c3)cn2C)cc1C(=O)NCCC(=N)N [m=1 n=1 l=3 k=1] | – | – | – | – | – | 6.4 | – | – | –
Cl.Cl.Cn1cc(NC(=O)c2cc(NC(=O)CCCCC(=O)Nc3cc(C(=O)Nc4cc(C(=O)NCCC(=N)N)n(C)c4)n(C)c3)cn2C)cc1C(=O)NCCC(=N)N [m=1 n=1 l=4 k=1] | – | – | – | – | – | 1.05 | – | – | –
Cl.Cl.Cn1cc(NC(=O)c2cc(NC(=O)CCCCCC(=O)Nc3cc(C(=O)Nc4cc(C(=O)NCCC(=N)N)n(C)c4)n(C)c3)cn2C)cc1C(=O)NCCC(=N)N [m=1 n=1 l=5 k=1] | – | – | – | – | – | 4.4 | – | – | –
Cl.Cl.Cn1cc(NC(=O)c2cc(NC(=O)c3cc(NC(=O)CCC(=O)Nc4cc(C(=O)Nc5cc(C(=O)Nc6cc(C(=O)NCCC(=N)N)n(C)c6)n(C)c5)n(C)c4)cn3C)cn2C)cc1C(=O)NCCC(=N)N [m=1 n=2 R = CO(CH2)2 CO] | 4 | 4 | > 100 | 4.29 ± 1.12 | 4.14 ± 8.4 | – | 4 | ≥ 40 | Minimum Inhibitory Conc. MOLT/4F (ID50) [3]: 100 µg/mL
